Data on 11 compounds can be found in PubChem BioAssay (NCI).

Test systems include DLD-1 colon; NCI-H460 lung; 786-0 renal; CAKI-1 renal; HCC-2998 colon; OVCAR-8 ovarian; SNB-75 CNS; M14 melanoma; NCI-H522 lung; CCRF-CEM leukemia.
Assay in all cases: inhibition of tumour cell growth, NCI panel, 48 h

Each structure is given as a SMILES string.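 Briefly, cells in 96-well plates were exposed to five compound concentrations for 48 h, and endpoints were estimated by linear interpolation. At the GI50, growth is halved. TGI: total growth inhibition.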

Regarding `CCOC(=O)C(=[N+]=[N-])[Si](C)(C)C`, the TGI in the test with DLD-1 colon, in the test with NCI-H460 lung, in the test with 786-0 renal, in the test on CAKI-1 renal, in the test on HCC-2998 colon and with OVCAR-8 ovarian was over 100 µM throughout. The compound also gave a TGI in the test with SNB-75 CNS of over 100 µM.

Turning to `O=C(O)Cc1cc(Cl)ccc1O`, the TGI with M14 melanoma, with NCI-H460 lung, in the test on NCI-H522 lung, in the test on CCRF-CEM leukemia, in the test with 786-0 renal and in the test with CAKI-1 renal was over 100 µM throughout. Moreover, the TGI in the test with HCC-2998 colon, with OVCAR-8 ovarian and in the test on SNB-75 CNS was over 100 µM throughout.

With `COc1ccc(CC2NCCc3c2[nH]c2ccccc32)cc1` (stereo not drawn), the TGI in the test on DLD-1 colon is over 100 µM; with M14 melanoma, over 100 µM; with NCI-H460 lung, over 100 µM; in the test on CCRF-CEM leukemia it was over 100 µM; with 786-0 renal, over 100 µM; in the test with HCC-2998 colon it was 48.3 µM. In addition, the TGI in the test on OVCAR-8 ovarian and in the test on SNB-75 CNS was over 100 µM in each case.

As to `C1=CC(N(c2ccccc2)C2C=CCCC2)CCC1` (stereo not drawn), the TGI in the test on DLD-1 colon, in the test with M14 melanoma, in the test on NCI-H460 lung, in the test with NCI-H522 lung, in the test on CCRF-CEM leukemia and in the test with 786-0 renal was over 100 µM each time. Moreover, the TGI in the test on CAKI-1 renal and with OVCAR-8 ovarian was over 100 µM throughout.

On to `OCC1OC(c2nc(C3=NCCCN3)cs2)C(O)C1O` (stereo not drawn), for which the TGI with DLD-1 colon, in the test on M14 melanoma, with NCI-H460 lung, in the test on NCI-H522 lung, in the test with CCRF-CEM leukemia and in the test on 786-0 renal was over 100 µM each time. Further, the TGI in the test with CAKI-1 renal, with HCC-2998 colon and with OVCAR-8 ovarian was over 100 µM each time.

For `N#CC(C(=O)C(=O)C(C#N)c1ccc(Br)cc1)c1ccc(Br)cc1` (stereo not drawn), the TGI was 34.5 µM in the test on DLD-1 colon; 31.6 µM with M14 melanoma; 30.5 µM in the test on NCI-H460 lung; over 100 µM with CCRF-CEM leukemia; 27 µM in the test with 786-0 renal; 37.1 µM with CAKI-1 renal. For the same compound, the TGI in the test on HCC-2998 colon amounted to 24.5 µM; in the test with SNB-75 CNS it was 17.7 µM.

Regarding `CCOC(=O)C(Cc1ccc(CCCC(=O)NCCC(=O)Nc2ccc3nc(C)sc3c2)cc1)C(=O)OCC`, the GI50 with M14 melanoma was 29.3 µM; with NCI-H460 lung, over 62.4 µM; in the test with NCI-H522 lung it was 33.1 µM; with CCRF-CEM leukemia, 28.6 µM; with 786-0 renal, over 77.9 µM; in the test on CAKI-1 renal, 49.1 µM. Moreover, the GI50 in the test with HCC-2998 colon was 60.4 µM; in the test with OVCAR-8 ovarian, 20.1 µM; in the test with SNB-75 CNS, over 52.1 µM. Further, the TGI in the test on M14 melanoma is over 93.8 µM; with NCI-H460 lung, over 100 µM; in the test on NCI-H522 lung it was over 100 µM; with CCRF-CEM leukemia, over 89.3 µM; with 786-0 renal, over 100 µM; in the test on CAKI-1 renal, over 100 µM. Moreover, the TGI with HCC-2998 colon is over 100 µM; with OVCAR-8 ovarian it was 42.1 µM; with SNB-75 CNS it was over 100 µM.

As to `Clc1ccc2[nH]cc(-c3nnnn3-c3ccccc3)c2c1`, the GI50 with M14 melanoma is 9.74 µM; in the test on NCI-H460 lung it was 20.3 µM; with NCI-H522 lung, 18.7 µM; in the test on CCRF-CEM leukemia, 19.3 µM; with 786-0 renal, 29.6 µM; in the test with HCC-2998 colon, 5.32 µM. Moreover, the GI50 in the test on OVCAR-8 ovarian is 29.5 µM; with SNB-75 CNS it was 6.25 µM. The TGI with M14 melanoma is 41.8 µM; in the test on NCI-H460 lung, over 100 µM; in the test on NCI-H522 lung, over 92.5 µM; in the test with CCRF-CEM leukemia it was over 100 µM; in the test on 786-0 renal it was over 100 µM; in the test with CAKI-1 renal it was 1.16 µM. Further, the TGI was 20.1 µM in the test on HCC-2998 colon, over 93.3 µM in the test with OVCAR-8 ovarian and 30.8 µM with SNB-75 CNS.

As to `O=C(CSc1nc2ccccc2nc1-c1ccccc1)Nc1ccc(F)cc1`, the GI50 in the test on M14 melanoma is over 100 µM; with NCI-H460 lung, 60.7 µM; in the test on NCI-H522 lung, 24.2 µM; in the test on CCRF-CEM leukemia, over 100 µM; with 786-0 renal, 49.2 µM; with CAKI-1 renal, over 100 µM. In addition, the GI50 was 49.6 µM with HCC-2998 colon, 30 µM with OVCAR-8 ovarian and 21.6 µM in the test on SNB-75 CNS. For the same compound, the TGI with M14 melanoma, in the test on NCI-H460 lung, in the test with NCI-H522 lung, in the test with CCRF-CEM leukemia, with 786-0 renal and in the test on CAKI-1 renal was over 100 µM throughout. Further, the TGI is over 100 µM with HCC-2998 colon, over 100 µM in the test on OVCAR-8 ovarian and 80.8 µM in the test with SNB-75 CNS.

As for `Cc1ccc(NC(=O)CCc2cc(C(C)(C)C)nc(=S)[nH]2)cc1C`, the TGI with M14 melanoma, with NCI-H460 lung, with NCI-H522 lung, in the test on CCRF-CEM leukemia, in the test with 786-0 renal and with CAKI-1 renal was over 100 µM throughout. The TGI with HCC-2998 colon, in the test on OVCAR-8 ovarian and with SNB-75 CNS was over 100 µM throughout.

Regarding `COc1ccc(-c2nc3ccc(-c4nc5ccc(N6CCN(c7ccccc7)CC6)cc5[nH]4)cc3[nH]2)cc1OC`, the GI50 in the test with M14 melanoma was 1.69 µM; with NCI-H460 lung, 1.73 µM; in the test with NCI-H522 lung, 1.81 µM; with 786-0 renal it was 1.62 µM; with CAKI-1 renal, 2.18 µM; in the test with HCC-2998 colon, 1.72 µM. Further, the results for the GI50 in the test on OVCAR-8 ovarian and in the test with SNB-75 CNS were 1.52 µM and 1.06 µM, respectively. Besides, the TGI was found to be 6.32 µM with M14 melanoma; 3.66 µM in the test on NCI-H460 lung; 4.15 µM in the test on NCI-H522 lung; 2.54 µM with CCRF-CEM leukemia; 3.12 µM in the test with 786-0 renal; 8.02 µM in the test with CAKI-1 renal. The TGI stood at 3.34 µM in the test on HCC-2998 colon, 4.56 µM in the test on OVCAR-8 ovarian and 3.8 µM in the test on SNB-75 CNS.
